Experimental findings from ChEMBL document CHEMBL4706602, “β-lactam antibiotics: An overview from a medicinal chemistry perspective” (Eur J Med Chem, 2020) are described below.

A word on the bioavailability: it is dose-corrected exposure relative to a reference, in per cent. A low value points to little systemic uptake.

A short description of data set [1]: Half life of compound in human. Type of data set: ADME.
A short description of data set [2]: Half life in human at 600 mg, iv administered every 12 hrs as 1 hr infusion. Format: ADME, organism-based. As to conditions: in vivo.
A short description of data set [3]: Protein binding in plasma (unknown origin). Type of data set: ADME, cell-free. As to conditions: read-out: PPB (converted).
A short description of data set [4]: Bioavailability in human at 500 mg, IM. Format: ADME, organism-based. As to conditions: in vivo.
Data set [5] can be described thus: Drug excretion in human urine assessed as unaltered drug. As to conditions: read-out: Drug excretion. Format: ADME.
The nature of data set [6]: Oral bioavailability in human. Type of data set: ADME, organism-based. As to conditions: in vivo.
Data set [7] is described as follows: Half life of compound. Type of data set: physicochemical.
A short description of data set [8]: Elimination half life in human at 1 g, iv infusion for 30 mins. Format: ADME, organism-based. As to conditions: in vivo, read-out: beta t1/2 (converted).
Data set [9] is described as follows: Chemical stability of compound assessed as compound degradation at 37 degreeC measured for 24 hrs. As to conditions: read-out: Drug degradation. Format: physicochemical.

`CC1(C)S[C@@H]2[C@H](NC(=O)C(C(=O)O)c3ccccc3)C(=O)N2[C@H]1C(=O)O` (some centres not stated) [CARBENICILLIN] gave a half-life in data set [1] of 1 h. On to `CCO/N=C(\C(=O)N[C@@H]1C(=O)N2C(C(=O)O)=C(Sc3nc(-c4cc[n+](C)cc4)cs3)CS[C@H]12)c1nsc(NP(=O)(O)O)n1.[Na+]`, for which, in [2], the half-life is 1.6 h. Consider `Cc1onc(-c2ccccc2Cl)c1C(=O)N[C@@H]1C(=O)N2[C@@H]1SC(C)(C)[C@@H]2C(=O)O` [CLOXACILLIN], for which the fraction unbound in data set [3] was 0.1.

As to `Cc1onc(-c2ccccc2)c1C(=O)N[C@@H]1C(=O)N2[C@@H]1SC(C)(C)[C@@H]2C(=O)O` [OXACILLIN], in data set [3], the fraction unbound was 0.1. On to `C[C@H]1[C@H](NC(=O)/C(=N\OC(C)(C)C(=O)O)c2csc(N)n2)C(=O)N1S(=O)(=O)O` [AZTREONAM], for which the bioavailability in data set [4] was 100%; in data set [6] it was 1%. For the same molecule, the dose excreted in [5] worked out at 68%.

Consider `CC1(C)S[C@@H]2[C@H](NC(=O)Cc3ccccc3)C(=O)N2[C@H]1C(=O)O` [PENICILLIN G], for which the fraction unbound in [3] is 0.4. In [7], this molecule returned a half-life of 0.333 h.

In the case of `CC1(C)S[C@@H]2[C@H](NC(=O)[C@H](N)c3ccc(O)cc3)C(=O)N2[C@H]1C(=O)O` [AMOXICILLIN], in data set [3], the fraction unbound is 0.7. With `C[C@@H](O)[C@H]1C(=O)N2C(C(=O)O)=C(S[C@@H]3CN[C@H](C(=O)N(C)C)C3)[C@H](C)[C@H]12` [MEROPENEM], in data set [8], the half-life is 1 h. Moreover, the degraded at 24 h in data set [9] worked out at 60%.
